According to patent publication US20070105836A1, “Prodrugs of muscarinic agonists and methods of treatment of neuropsychiatric disorders” (priority 2005, published 2007):

Experiment: Conversion of prodrugs to NDMC in vivo (plasma and brain levels of NDMC by LC-MS/MS after oral dosing)
Protocol: Male, Sprauge-Dawly rats (200-225 grams, Harlan, San Diego, Calif.) implanted with jugular vein cannulae served as experimental subjects. Rats were fasted for approximately 16 hours and then dosed orally with one of several test compounds. All test compounds were administered at a fixed dose of 10 mg/kg (freebase) in a volume of 1 mL/kg. Venous blood samples were collected 0, 30, 60 and 120 min following test compound administration. Samples were placed into heparinized tubes and centrifuged to obtain plasma. Additionally, whole brains were harvested at the 120 min time point in order to determine brain levels of test compounds. Plasma samples, brains and any remaining dosing solutions were stored at −80° C. until analyzed.
The thawed plasma samples were processed by protein precipitation using acetonitrile. Following centrifugation the supernatant was diluted appropriately and transferred to the analysis deep well plate for analysis. […]
Calibration samples and samples were analyzed by LC-MS/MS using positive electrospray ionization. […]
Samples were analyzed using multiple reaction monitoring (MRM). […]
4.0.1 and the area under the curve (AUC0-120) of NDMC was calculated. In vivo conversion to NDMC was calculated from the dose-normalized ratio of AUC0-120 of NDMC following administration of pro-drug and NDMC, respectively.

## Clc1ccc2c(c1)N=C(N1CCNCC1)c1ccccc1N2 [NDMC, N-desmethylclozapine]
Male Sprague-Dawley rats, fasted, oral 10 mg/kg (freebase) of compound administered, plasma 0-120 min
  Plasma AUC(0-120 min) of NDMC: 1298 nmol·h/L
rats, oral 10 mg/kg, whole brain at 120 min, n = 3
  Mean brain concentration of NDMC at 120 min (SD): 255 (56) nmol/(kg)
